Data published in ChEMBL document CHEMBL4308832, “Discovery of Allosteric, Potent, Subtype Selective, and Peripherally Restricted TrkA Kinase Inhibitors” (J Med Chem, 2018).

Assays:
[1] = in vitro; settings: dog, MDCK
[2] = physchem; settings: buffer, pH 7.4
[3] = in vivo; settings: rat, brain, iv, 1 mg/kg
[4] = in vivo; settings: rat, iv, 1 mg/kg
[5] = in vivo; settings: rat, po, 3 mg/kg
[6] = in vivo; settings: rat, po, 3 mg/kg; remark: listed apart in the source
[7] = in vivo; settings: rat, brain, iv, 0.5 mg/kg
[8] = in vivo; settings: rat, iv, 0.5 mg/kg
[9] = in vivo; settings: rat, po, 2 mg/kg
[10] = in vivo; settings: rat, po, 2 mg/kg; remark: listed apart in the source

SMILES | Papp A→B [1] [×10⁻⁶ cm/s] | logD [2] | further results
Cc1cc(NC(=O)c2ccc(Cl)cc2Cl)n(-c2ccccc2)n1 | 30 | 3.3 | 
NC(=O)c1cc(NC(=O)c2cc(-c3ccccn3)c(F)cc2Cl)n(-c2ccccc2)n1 | 10 | 2.7 | 
CC(=O)Nc1cccc(-c2ccc(Cl)c(C(=O)Nc3cc(C(N)=O)nn3-c3ccccc3)c2)n1 | 10 | 2.7 | 
COc1cc(Cl)c(C(=O)Nc2cc(C(N)=O)nn2-c2ccccc2)cc1-c1ccccn1 | 13 | 2.4 | 
Cc1cc(Cl)c(C(=O)Nc2cc(C(N)=O)nn2-c2ccccc2)cc1-c1ccccn1 | 12 | 2.6 | 
NC(=O)c1cc(NC(=O)c2cc(-c3cccc(C(F)F)n3)ccc2Cl)n(-c2ccccc2)n1 | 8.5 | 3.5 | 
NC(=O)c1cccc(-c2ccc(Cl)c(C(=O)Nc3cc(C(N)=O)nn3-c3ccccc3)c2)n1 | 6.1 | 2.3 | 
NC(=O)c1cc(NC(=O)c2cc(-c3ncccc3Cl)ccc2Cl)n(-c2ccccc2)n1 | 14 | 2.8 | Kp uu at 4 h [3]: 0.076; Vd [4]: 1.1 L/kg; Tmax [5]: 0.9 h; bioavailability [6]: 85%
NC(=O)c1cc(NC(=O)c2cc(-c3ccccn3)c(OC(F)F)cc2Cl)n(-c2ccccc2)n1 | 13 | 2.7 | 
NC(=O)c1cc(NC(=O)c2cc(-c3ccccn3)c(C3CC3)cc2Cl)n(-c2ccccc2)n1 |  | 3.1 | 
NC(=O)c1cc(NC(=O)c2cc(-c3nc(N)ccc3Cl)ccc2Cl)n(-c2ccccc2)n1 | 11 | 3.2 | 
NC(=O)c1cc(NC(=O)c2cc(-c3cccc(N)n3)c(Cl)cc2Cl)n(-c2ccccc2)n1 | 11 | 2.9 | 

More lines, main results first:

Papp A→B [1] [×10⁻⁶ cm/s] | logD [2] | SMILES | further results
11 | 3 | O=C(NC1COC1)c1cc(NC(=O)c2cc(-c3ccccn3)c(Cl)cc2Cl)n(-c2ccccc2)n1 | 
17 | 3 | NC(=O)c1cc(NC(=O)c2cc(-c3ccccn3)c(Cl)cc2Cl)n(-c2ccccc2)n1 | 
17 | 3.1 | CC(C)(O)CNC(=O)c1cc(NC(=O)c2cc(-c3ncccc3F)c(F)cc2Cl)n(-c2ccccc2)n1 | 
0.72 | 0.94 | NCCNC(=O)c1cc(NC(=O)c2cc(-c3ccccn3)c(Cl)cc2Cl)n(-c2ccccc2)n1 | 
12 | 2.8 | O=C(NCCO)c1cc(NC(=O)c2cc(-c3ccccn3)c(Cl)cc2Cl)n(-c2ccccc2)n1 | 
19 | 2.6 | NC(=O)c1cc(NC(=O)c2cc(-c3ncccc3F)ccc2Cl)n(-c2ccccc2)n1 | Kp uu at 4 h [3]: 0.1; Vd [4]: 0.46 L/kg; Tmax [5]: 4 h; bioavailability [6]: 100%
23 | 2.7 | NC(=O)c1cc(NC(=O)c2cc(-c3ncccc3F)c(F)cc2Cl)n(-c2ccccc2)n1 | 
8.5 | 3 | O=C(NCCO)c1cc(NC(=O)c2cc(-c3ccccn3)c(C(F)(F)F)cc2Cl)n(-c2ccccc2)n1 | 
13 | 2.8 | O=C(NCCO)c1cc(NC(=O)c2cc(-c3ncccc3F)c(Cl)cc2Cl)n(-c2ccccc2)n1 | 
12 | 3.3 | CC(C)(O)CNC(=O)c1cc(NC(=O)c2cc(-c3ncccc3F)c(Cl)cc2Cl)n(-c2ccccc2)n1 | Kp uu at 4 h [7]: 0.015; Vd [8]: 1.6 L/kg; Tmax [9]: 3 h; bioavailability [10]: 46%
